Experimental findings from PubChem BioAssay (NCI) are described below.

Among the test systems are A549 NSCLC; COLO 205 colon; EKVX NSCLC; MALME-3M melanoma; MCF7 breast; MOLT-4 leukemia; NCI/ADR-RES ovarian; SK-OV-3 ovarian; UACC-62 melanoma; UO-31 renal.
What all share (experiment): NCI anticancer screen, dose series, 48 h

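Following 48 hours of exposure in 96-well plates, responses at five concentrations were used to interpolate endpoints linearly. GI50: concentration for 50% inhibition of growth. TGI: concentration producing complete growth inhibition.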

With `C=CCCCCCCCCC(=O)[O][Sn]([CH2]CCC)([CH2]CCC)[CH2]CCC`, the GI50 in the assay on A549 NSCLC is 0.164 µM; with COLO 205 colon, 0.172 µM; with EKVX NSCLC, 0.131 µM; in the assay on MALME-3M melanoma, 0.135 µM; in the assay on MCF7 breast it was 0.137 µM; in the assay on MOLT-4 leukemia, 0.228 µM. Also, the GI50 is 0.163 µM in the assay with NCI/ADR-RES ovarian, 0.149 µM in the assay with SK-OV-3 ovarian, 0.168 µM in the assay on UACC-62 melanoma and 0.132 µM in the assay with UO-31 renal. Moreover, the TGI in the assay with A549 NSCLC was found to be 0.322 µM; with COLO 205 colon, 0.371 µM; with EKVX NSCLC it was 0.32 µM; in the assay with MALME-3M melanoma it was 0.287 µM; in the assay on MCF7 breast, 0.272 µM; with MOLT-4 leukemia, 0.833 µM. In addition, the TGI was 0.32 µM in the assay with NCI/ADR-RES ovarian, 0.306 µM in the assay with SK-OV-3 ovarian, 0.349 µM in the assay on UACC-62 melanoma and 0.276 µM in the assay on UO-31 renal.
Turning to `O=C1CCCCN1CCCCC#Cc1ccccc1C#Cc1ccc([N+](=O)[O-])cc1`, the GI50 in the assay with A549 NSCLC was 3.03 µM; in the assay with COLO 205 colon it was 2.75 µM; in the assay with EKVX NSCLC, 5.26 µM; in the assay on MALME-3M melanoma, 37.2 µM; in the assay with MCF7 breast it was 1.38 µM; in the assay on MOLT-4 leukemia it was 2.79 µM. The GI50 in the assay with NCI/ADR-RES ovarian was 3.35 µM; in the assay with SK-OV-3 ovarian, 1.57 µM; in the assay on UACC-62 melanoma, 5.77 µM; in the assay with UO-31 renal, 19.5 µM. For the same compound, the TGI was 13 µM in the assay with A549 NSCLC; 7.17 µM in the assay on COLO 205 colon; 40 µM with EKVX NSCLC; greater than 100 µM with MALME-3M melanoma; 3.65 µM in the assay on MCF7 breast; 9.22 µM with MOLT-4 leukemia. Also, the TGI turned out to be 12.3 µM in the assay on NCI/ADR-RES ovarian, 6.47 µM in the assay with SK-OV-3 ovarian, 20.3 µM with UACC-62 melanoma and 84.6 µM in the assay with UO-31 renal.
In the case of `Nc1cc(N)c2nc(-c3ccccc3)c(Nc3ccc(Cl)c(Cl)c3)nc2c1`, the GI50 with A549 NSCLC is 10.8 µM; in the assay on COLO 205 colon, 11.7 µM; with EKVX NSCLC, 3.83 µM; with MALME-3M melanoma, 10.3 µM; in the assay with MCF7 breast, 4.96 µM; in the assay on MOLT-4 leukemia, 4.05 µM. Besides, the GI50 in the assay on NCI/ADR-RES ovarian is 15.4 µM; in the assay with SK-OV-3 ovarian, 13.7 µM; in the assay with UACC-62 melanoma, 13.1 µM; in the assay with UO-31 renal it was 11.1 µM. The TGI in the assay with A549 NSCLC is 34.7 µM; in the assay on COLO 205 colon, 31.3 µM; with EKVX NSCLC it was 16.2 µM; in the assay with MALME-3M melanoma, 24.3 µM; with MCF7 breast, 21.1 µM; in the assay on MOLT-4 leukemia, greater than 100 µM. Also, the TGI was found to be 55.3 µM with NCI/ADR-RES ovarian, 31.3 µM in the assay with SK-OV-3 ovarian, 29.9 µM with UACC-62 melanoma and 36.3 µM with UO-31 renal.
In the case of `CS(=O)(=O)c1ccc([C@H]2O[C@@H](CO)C[C@]2(O)c2ccc(S(C)(=O)=O)cc2)cc1`, the GI50 with A549 NSCLC, in the assay on COLO 205 colon, in the assay on EKVX NSCLC, with MALME-3M melanoma, in the assay with MCF7 breast and in the assay with MOLT-4 leukemia was greater than 100 µM in each case. In addition, the GI50 in the assay with NCI/ADR-RES ovarian, with SK-OV-3 ovarian, in the assay with UACC-62 melanoma and with UO-31 renal was greater than 100 µM in each case. Moreover, the TGI in the assay with A549 NSCLC, in the assay on COLO 205 colon, with EKVX NSCLC, in the assay on MALME-3M melanoma, in the assay with MCF7 breast and in the assay on MOLT-4 leukemia was greater than 100 µM in each case. The TGI in the assay on NCI/ADR-RES ovarian, in the assay with SK-OV-3 ovarian, in the assay on UACC-62 melanoma and with UO-31 renal was greater than 100 µM each time.
As for `Cn1c(=O)c2[nH]c(SCc3ccccn3)nc2n(C)c1=S`, the TGI in the assay on A549 NSCLC, with COLO 205 colon, with EKVX NSCLC, with MALME-3M melanoma, in the assay with MCF7 breast and with MOLT-4 leukemia was greater than 100 µM in each case. In addition, the TGI in the assay with NCI/ADR-RES ovarian was greater than 100 µM; in the assay with SK-OV-3 ovarian it was 66.4 µM; with UACC-62 melanoma it was greater than 100 µM; with UO-31 renal it was greater than 100 µM.
With `N#Cc1ccc(NC(=O)Nc2ccc(Oc3ccc(NC(=O)Nc4ccc(C#N)cc4)cc3)cc2)cc1`, the GI50 was 17.8 µM in the assay with A549 NSCLC; 24.6 µM in the assay with COLO 205 colon; 10.3 µM in the assay on EKVX NSCLC; 3.28 µM in the assay on MALME-3M melanoma; 3.71 µM in the assay on MCF7 breast; 1.12 µM in the assay on MOLT-4 leukemia. The GI50 is 13 µM with NCI/ADR-RES ovarian, 11.1 µM with SK-OV-3 ovarian, 11.1 µM with UACC-62 melanoma and 22.2 µM with UO-31 renal. For the same compound, the TGI is greater than 100 µM with A549 NSCLC; greater than 100 µM in the assay with COLO 205 colon; greater than 100 µM with EKVX NSCLC; 77.8 µM with MALME-3M melanoma; greater than 100 µM in the assay on MCF7 breast; 37.7 µM with MOLT-4 leukemia. Besides, the TGI was greater than 100 µM in the assay on NCI/ADR-RES ovarian, 46.3 µM in the assay with SK-OV-3 ovarian, greater than 100 µM with UACC-62 melanoma and greater than 100 µM in the assay with UO-31 renal.
For the compound `COC(=O)[C@]12CC[C@@H](C)[C@H](C)[C@@H]1C1=CC[C@@H]3[C@@]4(C)C/C(=N\O)[C@H](O)[C@@]5(C)COC(=C45)C[C@@]3(C)[C@]1(C)CC2`, the GI50 with A549 NSCLC is 10.4 µM; with COLO 205 colon, 7.75 µM; in the assay with EKVX NSCLC, 10.3 µM; in the assay on MALME-3M melanoma it was 15.9 µM; with MCF7 breast it was 3.5 µM; with MOLT-4 leukemia, 2.97 µM. The GI50 in the assay on NCI/ADR-RES ovarian is 2.61 µM; with SK-OV-3 ovarian, 16.6 µM; in the assay on UACC-62 melanoma, 12.6 µM; with UO-31 renal, 12.3 µM. The TGI was 24.4 µM in the assay with A549 NSCLC; 21.8 µM in the assay on COLO 205 colon; 24.3 µM with EKVX NSCLC; 34.2 µM in the assay on MALME-3M melanoma; 15.3 µM in the assay with MCF7 breast; 10.8 µM in the assay on MOLT-4 leukemia. Besides, the TGI was 7.88 µM in the assay with NCI/ADR-RES ovarian, 30.5 µM in the assay on SK-OV-3 ovarian, 27.1 µM in the assay on UACC-62 melanoma and 29.2 µM in the assay on UO-31 renal.
Take `Cc1ccc(NC(=O)c2cccc(N(C)C)c2)cc1NC(=O)c1ccc(O)cc1`: the GI50 was 61.4 µM in the assay on A549 NSCLC; greater than 64.7 µM in the assay on COLO 205 colon; greater than 79.7 µM in the assay on EKVX NSCLC; greater than 75.9 µM in the assay on MALME-3M melanoma; 52 µM in the assay on MCF7 breast; greater than 72.4 µM in the assay on MOLT-4 leukemia. Further, the GI50 in the assay with NCI/ADR-RES ovarian was greater than 72 µM; with SK-OV-3 ovarian it was 65.7 µM; with UACC-62 melanoma, 34 µM; in the assay with UO-31 renal, greater than 73.4 µM. In addition, the TGI in the assay with A549 NSCLC, in the assay with COLO 205 colon, in the assay on EKVX NSCLC, in the assay on MALME-3M melanoma, in the assay on MCF7 breast and in the assay with MOLT-4 leukemia was greater than 100 µM in each case. Moreover, the TGI with NCI/ADR-RES ovarian was greater than 100 µM; in the assay on SK-OV-3 ovarian, greater than 100 µM; in the assay with UACC-62 melanoma it was 99.4 µM; with UO-31 renal, greater than 100 µM.
In the case of `O=C(N/N=C/c1ccccc1O)c1ccccc1Nc1ccnc(C(F)(F)F)c1`, the GI50 with A549 NSCLC was 0.505 µM; in the assay with COLO 205 colon it was 0.3 µM; in the assay on EKVX NSCLC, 0.302 µM; in the assay on MALME-3M melanoma it was 0.858 µM; with MCF7 breast, 0.35 µM; in the assay on MOLT-4 leukemia, 0.28 µM. Moreover, the GI50 in the assay with NCI/ADR-RES ovarian is 0.433 µM; in the assay with SK-OV-3 ovarian, 0.649 µM; with UACC-62 melanoma, 0.365 µM; with UO-31 renal, 0.291 µM. For the same compound, the TGI is greater than 30.9 µM in the assay with A549 NSCLC; 41.3 µM with COLO 205 colon; 67.2 µM with EKVX NSCLC; 19.2 µM with MALME-3M melanoma; 29.2 µM with MCF7 breast; greater than 32.3 µM in the assay with MOLT-4 leukemia. Besides, the TGI amounted to 30.1 µM with NCI/ADR-RES ovarian, 38 µM in the assay with SK-OV-3 ovarian, 7 µM with UACC-62 melanoma and 3.12 µM in the assay on UO-31 renal.
